Laboratory results: US20230091671A1 (priority 2020, published 2023)
Where a name gives a salt, the structure may show the parent alone.

Key:
[1] = cited from earlier work
[2] = target: T1, 1A subtype (α-1 adrenergic receptor) (Homo sapiens, UniProt P35348); settings: cited from earlier work
T1 sequence (P35348 1-466): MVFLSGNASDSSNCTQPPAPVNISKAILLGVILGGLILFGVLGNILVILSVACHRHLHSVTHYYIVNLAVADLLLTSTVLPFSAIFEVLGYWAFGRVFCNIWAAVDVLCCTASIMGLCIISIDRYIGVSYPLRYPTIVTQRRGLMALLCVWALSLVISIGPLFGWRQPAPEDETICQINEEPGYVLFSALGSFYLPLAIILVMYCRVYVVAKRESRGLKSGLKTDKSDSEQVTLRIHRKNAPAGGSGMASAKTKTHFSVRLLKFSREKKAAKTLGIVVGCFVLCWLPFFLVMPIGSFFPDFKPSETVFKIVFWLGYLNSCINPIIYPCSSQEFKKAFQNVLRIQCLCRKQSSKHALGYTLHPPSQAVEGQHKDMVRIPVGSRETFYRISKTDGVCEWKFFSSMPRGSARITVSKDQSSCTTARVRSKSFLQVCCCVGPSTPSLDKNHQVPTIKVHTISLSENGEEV

[3] = cited from earlier work; remark: listed apart in the source
[4] = in vivo; cited from earlier work
[5] = target: T2, α1-AR 1D (Homo sapiens, UniProt P25100); assay type: binding
T2 construct: expressed in transfected cells; host or cells: HEK-293
T2 sequence (P25100 1-572): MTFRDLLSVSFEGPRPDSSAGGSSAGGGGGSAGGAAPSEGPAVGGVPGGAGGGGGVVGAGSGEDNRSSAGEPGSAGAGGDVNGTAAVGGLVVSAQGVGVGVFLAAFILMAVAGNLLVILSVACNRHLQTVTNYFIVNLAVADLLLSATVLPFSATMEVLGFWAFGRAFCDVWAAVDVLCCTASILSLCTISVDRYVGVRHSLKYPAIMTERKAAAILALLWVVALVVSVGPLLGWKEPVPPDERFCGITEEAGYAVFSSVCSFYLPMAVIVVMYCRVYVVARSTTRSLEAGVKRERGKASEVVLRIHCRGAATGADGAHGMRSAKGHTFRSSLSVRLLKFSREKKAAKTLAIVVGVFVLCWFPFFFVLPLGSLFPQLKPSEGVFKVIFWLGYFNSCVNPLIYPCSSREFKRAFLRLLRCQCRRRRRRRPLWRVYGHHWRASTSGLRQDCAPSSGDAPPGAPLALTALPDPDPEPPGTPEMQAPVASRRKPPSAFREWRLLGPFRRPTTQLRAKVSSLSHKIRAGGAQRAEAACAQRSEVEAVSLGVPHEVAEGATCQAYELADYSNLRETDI

[6] = test system: VC and laryngeal muscles/laryngospasm; settings: rat model; cited from earlier work
[7] = single intramuscular and intravenous doses
[8] = recommended single intravenous injection
[9] = subcutaneous injection of 10 mg

CCOc1ccccc1OCCN[C@H](C)Cc1ccc(OC)c(S(N)(=O)=O)c1 [TAMSULOSIN, (-)-(R)-5-[2-[[2-(o-Ethoxyphenoxy)ethyl]amino]propyl]-2-methoxybenzenesulfon-amide, monohydrochloride]
incidence of hypotension, syncope, vertigo ([1]; Dose (0.4-0.8 mg QD)): 0.2%-0.6% | greater binding affinity at the 1A subtype over other α-1 antagonists [2]: 12-30 times

O=C(CCCN1CC=C(n2c(=O)[nH]c3ccccc32)CC1)c1ccc(F)cc1 [Droperidol, 1-[1-[3-(p-Fluorobenzoyl)propyl]-1,2,3,6-tetrahydro-4-pyridyl]-2-benzimidazolinone]
duration of the tranquilizing and sedative effects ([3]; human, in vivo): two to four hours | persistence of alteration of alertness ([3]; human, in vivo): as long as twelve hours | onset of action [3, 7]: three to ten minutes | time until peak effect apparent [3, 7]: up to thirty minutes

CCN1CC(CCN2CCOCC2)C(c2ccccc2)(c2ccccc2)C1=O (stereo not drawn) [Doxapram hydrochloride, 1-ethyl-4-[2-(4-morpholinyl)ethyl]-3,3-diphenyl-2-pyrrolidinone monohydrochloride, monohydrate]
duration of effect [3, 8]: 5 to 12 min | onset of respiratory stimulation [3, 8]: 20 to 40 s | time of peak effect [3, 8]: 1 to 2 min

COc1cc2nc(N(C)CCCNC(=O)C3CCCO3)nc(N)c2cc1OC.Cl (racemic) [ALFUZOSIN, (R,S)-N-[3-[(4-amino-6,7-dimethoxy-2-quinazolinyl)methylamino]propyl]tetrahydro-2-furancarboxamide hydrochloride]
dizziness ([1]; clinical test subjects): 6% | hypotension ([1]; clinical test subjects): 0.4% | syncope ([1]; clinical test subjects): 0.2%

CC[C@@H]1C(=O)OC[C@@H]1Cc1cncn1C [pilocarpine HCl]
salivation [3, 9]: 1 L | sweating [3, 9]: 0.5 to 1.0 L

COc1cc2nc(N3CCN(C(=O)c4ccco4)CC3)nc(N)c2cc1OC.Cl [PRAZOSIN, 1-(4-amino-6,7-dimethoxy-2-quinazolinyl)-4-(2-furoyl) piperazine]
Syncope and symptoms of hypotension, share of subjects receiving ([1]; 1 mg BID/TID titrated up to 20 mg total QD): 6-12%

CCC(=O)C(CC(C)N(C)C)(c1ccccc1)c1ccccc1 (stereo not drawn) [Methadone]
metabolism (enzymes / pathway) [4]: CYP3A4, CYP2B6 and CYP2D6

C[C@H](Cc1cc2c(c(C(N)=O)c1)N(CCCO)CC2)NCCOc1ccccc1OCC(F)(F)F [SILODOSIN, (3-Hydroxypropyl)-5-[(2R)-2-({2-[2-(2,2,2trifluoroethoxy)phenoxy]ethyl}amino)propyl]-2,3-dihydro-1H-indole-7-carboxamide]
Dizziness and orthostatic hypotension ([1]; Study of 897 subjects, 8 mg QD): 3% | subjects with syncope / subjects in study ([1]; Study of 897 subjects, 8 mg QD): 1/897

COc1cc2nc(N3CCN(C(=O)C4CCCO4)CC3)nc(N)c2cc1OC.Cl (racemic) [TERAZOSIN, (RS)-Piperazine,1-(4-amino-6,7-dimethoxy-2-quinazolinyl)-4-[(tetra-hydro-2-furanyl)carbonyl]-, monohydrochloride, dihydrate]
syncope ([1]; clinical test subjects): 0.6% | postural hypotension ([1]; trial of 600 subjects): 4%

NC[C@H](O)c1ccc(O)c(O)c1 [NE]
affinity and potency at α1-AR 1D compared with other subtypes [5]: highest affinity and potency

CN1CCC[C@H]1c1cccnc1 [Nicotine]
crossing of the blood brain barrier [4]: crosses the blood-brain barrier | elimination half-life in the body [4]: around two hours | half-life [4]: 1 to 2 h | route of excretion [4]: primarily excreted in urine | time to reach the brain after inhalation [4]: 10 to 20 s

C=CCN1CC[C@]23c4c5ccc(O)c4O[C@H]2C(=O)CC[C@@]3(O)[C@H]1C5.Cl [naloxone, 17-Allyl-4,5α-epoxy-3,14-dihydroxymorphinan-6-one hydrochloride]
dose at which naloxone has an effect [6]: > 0.8 mg/kg
